Reference: patent US10022354B2, “Pyrrolidine amide compounds as histone demethylase inhibitors” (GENENTECH, INC., priority 2014, dated 2018)

Assays:
full length KDM5A enzyme = full length KDM5A enzyme (Homo sapiens (Human), UniProt P29375); assay: KDM5 Enzyme Assay (KDM5A HTRF); format: biochemical; conditions: 2 nM full length KDM5A, 100 nM H3K4Me3 peptide, 1 uM 2-OG, 30 min room temperature
In short: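 KDM5A demethylase activity was assessed by HTRF using in-house expressed and purified full length human KDM5A at 2 nM with 100 nM biotinylated H3K4Me3 peptide and 1 uM 2-OG. The 10 uL reaction also held 100 uM Fe^2+, 500 uM ascorbate, 50 mM HEPES pH 7.0, 0.01% Triton-X 100, 2 mM DTT and 0.25% DMSO. Detection used Eu-labeled H3K4me1-2 antibody and streptavidin-XL665, read on an Envision reader.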

[1] = tested on: H3K4Me3 mark level in PC9 cells; assay: KDM5 Cell Assay (H3K4Me3 mark level, PC9 HTRF); format: cell-based; conditions: Homo sapiens, PC-9, 120 hours at 37° C.
Protocol: PC9 cells were seeded in a 384 well plate (2000 cells/well) with a test compound and incubated for 120 hours at 37° C. H3K4Me3 mark level was assessed using HTRF reagents from CisBio. Briefly, media was removed and cells were lysed in 20 μL of Epigeneous Cell Histone lysis buffer C for 45 min at 26° C., shaking. 10 μL of 4 μg/mL acceptor antibody (H3K4me3-d2) and 10 μL of 1.2 μg/mL donor antibody (Total H3-K) in Cell Histone detection buffer were added and the mixture was incubated at 26° C. for 1 hour. Assay plate was read subsequently on Envision (Perkin Elmer). Each compound was run in duplicate. Data were normalized to DMSO treated wells as the low response and EC50's were calculate using a four-parameter fit.

Sequence of full length KDM5A enzyme (P29375 whole entry): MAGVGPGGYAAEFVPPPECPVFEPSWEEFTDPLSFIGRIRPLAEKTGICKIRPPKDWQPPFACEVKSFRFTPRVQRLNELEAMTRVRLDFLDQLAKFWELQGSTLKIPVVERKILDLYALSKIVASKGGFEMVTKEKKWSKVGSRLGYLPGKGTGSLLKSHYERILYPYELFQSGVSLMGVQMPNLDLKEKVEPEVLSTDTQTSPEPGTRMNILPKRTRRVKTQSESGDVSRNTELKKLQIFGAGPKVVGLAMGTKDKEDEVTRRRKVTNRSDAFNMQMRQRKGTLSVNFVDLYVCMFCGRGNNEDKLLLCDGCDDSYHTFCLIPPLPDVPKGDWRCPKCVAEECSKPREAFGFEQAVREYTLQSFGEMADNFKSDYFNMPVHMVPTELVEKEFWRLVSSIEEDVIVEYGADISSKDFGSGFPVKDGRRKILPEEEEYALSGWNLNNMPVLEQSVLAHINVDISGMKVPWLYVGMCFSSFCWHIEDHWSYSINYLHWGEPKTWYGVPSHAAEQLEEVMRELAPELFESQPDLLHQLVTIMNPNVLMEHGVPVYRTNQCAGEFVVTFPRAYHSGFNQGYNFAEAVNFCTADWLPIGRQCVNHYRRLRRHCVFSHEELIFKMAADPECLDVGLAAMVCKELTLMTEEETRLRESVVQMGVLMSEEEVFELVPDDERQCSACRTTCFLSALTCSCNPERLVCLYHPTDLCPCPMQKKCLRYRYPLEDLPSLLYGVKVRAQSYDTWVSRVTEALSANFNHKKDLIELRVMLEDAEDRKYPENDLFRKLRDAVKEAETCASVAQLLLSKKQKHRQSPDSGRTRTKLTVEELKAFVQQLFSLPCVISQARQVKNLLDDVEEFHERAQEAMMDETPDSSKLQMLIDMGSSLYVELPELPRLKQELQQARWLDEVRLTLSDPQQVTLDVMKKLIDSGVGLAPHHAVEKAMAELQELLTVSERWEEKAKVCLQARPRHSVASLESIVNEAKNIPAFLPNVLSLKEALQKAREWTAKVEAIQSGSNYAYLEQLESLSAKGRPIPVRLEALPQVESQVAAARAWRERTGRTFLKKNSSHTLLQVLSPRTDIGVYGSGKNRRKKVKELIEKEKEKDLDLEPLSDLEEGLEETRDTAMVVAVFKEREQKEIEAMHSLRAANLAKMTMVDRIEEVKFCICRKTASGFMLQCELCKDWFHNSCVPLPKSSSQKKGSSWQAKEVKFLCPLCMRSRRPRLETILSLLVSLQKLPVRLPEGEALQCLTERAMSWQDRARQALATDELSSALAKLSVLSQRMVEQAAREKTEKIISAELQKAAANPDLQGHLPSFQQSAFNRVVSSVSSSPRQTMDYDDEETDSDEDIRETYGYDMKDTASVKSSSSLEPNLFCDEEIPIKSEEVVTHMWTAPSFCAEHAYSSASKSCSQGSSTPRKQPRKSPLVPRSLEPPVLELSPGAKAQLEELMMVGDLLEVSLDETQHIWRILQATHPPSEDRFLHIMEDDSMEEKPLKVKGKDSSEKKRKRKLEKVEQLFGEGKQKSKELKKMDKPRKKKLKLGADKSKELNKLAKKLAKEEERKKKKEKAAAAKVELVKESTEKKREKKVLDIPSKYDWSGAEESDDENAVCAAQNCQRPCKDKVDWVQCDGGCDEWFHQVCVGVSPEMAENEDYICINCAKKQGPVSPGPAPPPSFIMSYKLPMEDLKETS

IC50 (full length KDM5A enzyme)	EC50 [1]	Structure (SMILES)
0.16 nM	6.7 nM	O=C(NC1CCN(C(=O)c2cc(C3CCC3)n[nH]2)C1)C1CC1 (stereo not drawn) [Example 210]
0.058 nM	3.7 nM	Cc1cccn(C2CCN(C(=O)c3cc(C(C)C)n[nH]3)C2)c1=O (stereo not drawn) [Example 40, 1-(1-(3-Isopropyl-1H-pyrazole-5-carbonyl)pyrrolidin-3-yl)-3-methylpyridin-2(1H)-one]
0.077 nM	8.2 nM	CC(C)c1cc(C(=O)N2CC[C@H](NC(=O)c3ccccc3)C2)[nH]n1 [Example 117]
0.3 nM	23 nM	CC(C)c1cc(C(=O)N2CC[C@@H](n3ncc4c(F)cccc43)C2)[nH]n1 [Example 246]
0.076 nM	4.9 nM	CC(C)c1cc(C(=O)N2CCC(NC(=O)c3ccc4cc[nH]c4n3)C2)[nH]n1 (stereo not drawn) [Example 135]
0.12 nM	11 nM	CC(CCCc1ccccc1)c1cc(C(=O)N2CCC(NC(=O)C3CC3)C2)n[nH]1 (stereo not drawn) [Example 22, N-(1-(5-(5-phenylpentan-2-yl)-1H-pyrazole-3-carbonyl)pyrrolidin-3-yl) cyclopropanecarboxamide]
0.05 nM	1.7 nM	CC(C)c1cc(C(=O)N2C[C@H](NC(=O)C3CC3)[C@@H](F)C2)[nH]n1 [Example 218]
0.071 nM	6.4 nM	CC(C)c1cc(C(=O)N2CCC(NC(=O)C3(C)CCC3)C2)[nH]n1 (stereo not drawn) [Example 134]
0.16 nM	19 nM	CC(C)c1cc(C(=O)N2CCC(n3cc(Br)c(C4CC4)n3)C2)[nH]n1 (stereo not drawn) [Example 234]
0.74 nM	30 nM	CC(C)c1cc(C(=O)N2CCC(n3cc(Br)cn3)C2)[nH]n1 (stereo not drawn) [Example 59]
0.074 nM	1.4 nM	CC(C)c1cc(C(=O)N2CC[C@@H](NC(=O)C3(C)CC3)C2)[nH]n1 [Example 224]
0.21 nM	26 nM	CC(C)n1cnc(C(=O)N2CCC(NC(=O)C3CC3)C2)c1 (stereo not drawn) [Example 19, N-(1-(1-isopropyl-1H-imidazole-4-carbonyl)pyrrolidin-3-yl)cyclopropanecarboxamide]
0.087 nM	3.3 nM	CC(C)c1cc(C(=O)N2CCC(NC(=O)NC3CC3)C2)[nH]n1 (stereo not drawn) [Example 33, 1-Cyclopropyl-3-(1-(3-isopropyl-1H-pyrazole-5-carbonyl)pyrrolidin-3-yl)urea]
0.078 nM	1.1 nM	CC(C)c1cc(C(=O)N2CC[C@@H](NC(=O)C3CC34CC4)C2)[nH]n1 (stereo partly drawn) [Example 228]
0.2 nM	8.6 nM	CC(C)c1cc(C(=O)N2CCC(NC(=O)C3(O)CC3)C2)[nH]n1 (stereo not drawn) [Example 171]
0.15 nM	7 nM	CC(C)c1cc(C(=O)N2CCC(n3cc(Br)c(C(C)C)n3)C2)[nH]n1 (stereo not drawn) [Example 238]
0.11 nM	14 nM	CC(C)c1cc(C(=O)N2CC[C@H](NC(=O)C3(C)CC3)C2)[nH]n1 [Example 225]
0.054 nM	2.5 nM	CC(C)c1cc(C(=O)N2CCC(NC(=O)c3ccccc3OCc3ccccc3)C2)[nH]n1 (stereo not drawn) [Example 136]
0.12 nM	11 nM	CC(CCc1ccccc1)c1cc(C(=O)N2CCC(NC(=O)C3CC3)C2)[nH]n1 (stereo not drawn) [Example 212]
0.049 nM	0.93 nM	CC(C)c1cc(C(=O)N2CC[C@@H](NC(=O)C3CC3)C2)[nH]n1 [Example 29, (R)—N-(1-(3-isopropyl-1H-pyrazole-5-carbonyl)pyrrolidin-3-yl)cyclopropane Carboxamide]
0.57 nM	23 nM	CC(C)c1cc(C(=O)N2CCC(c3cc(-c4cnn(C)c4)ccn3)C2)[nH]n1 (stereo not drawn) [Example 12, (3-Isopropyl-1H-pyrazol-5-yl)(3-(4-(1-methyl-1H-pyrazol-4-yl)pyridin-2-yl)pyrrolidin-1-yl) Methanone]
0.14 nM	5 nM	CC(C)c1cc(C(=O)N2CC[C@@H](NC(=O)[C@@H]3C[C@H]3F)C2)[nH]n1 [Example 232]
0.14 nM	6.5 nM	CCC1(C(=O)NC2CCN(C(=O)c3cc(C(C)C)n[nH]3)C2)CC1 (stereo not drawn) [Example 141]
0.051 nM	2.1 nM	CC(C)c1cc(C(=O)N2CC[C@@H](NC(=O)C3(F)CC3)C2)[nH]n1 [Example 221]
0.065 nM	3.2 nM	CCCOc1ccccc1C(=O)NC1CCN(C(=O)c2cc(C(C)C)n[nH]2)C1 (stereo not drawn) [Example 180]
0.046 nM	1.8 nM	CC(C)c1cc(C(=O)N2C[C@H](NC(=O)C3CC3)[C@@H](O)C2)[nH]n1 [Example 219]
0.16 nM	2.5 nM	CC(C)c1cc(C(=O)N2C[C@H](NC(=O)C3CC3)C3(CC3)C2)[nH]n1 [Example 220]
